Data from PubChem BioAssay (NCI).
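Method: 48-hour compound exposure of cells in 96-well plates, five concentrations, linear interpolation of endpoints. Here, GI50 denotes the concentration required for 50% inhibition of growth. TGI is the concentration that stops growth completely.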

Columns and labels:
Experiment in all cases: inhibition of tumour cell growth, NCI panel, 48 h
786-0 renal = system: 786-0 renal
A498 renal = system: A498 renal
A549 NSCLC = system: A549 NSCLC
MALME-3M melanoma = system: MALME-3M melanoma
NCI-H460 lung = system: NCI-H460 lung
RXF 393 renal = system: RXF 393 renal
SF-295 CNS = system: SF-295 CNS
TK-10 renal = system: TK-10 renal
NCI/ADR-RES ovarian = system: NCI/ADR-RES ovarian
PC-3 prostate = system: PC-3 prostate

SMILES | TGI (786-0 renal) [µM] | TGI (A498 renal) [µM] | TGI (A549 NSCLC) [µM] | TGI (MALME-3M melanoma) [µM] | TGI (NCI-H460 lung) [µM] | TGI (RXF 393 renal) [µM] | TGI (SF-295 CNS) [µM] | TGI (TK-10 renal) [µM] | GI50 (786-0 renal) [µM] | GI50 (A549 NSCLC) [µM] | GI50 (NCI-H460 lung) [µM] | GI50 (NCI/ADR-RES ovarian) [µM] | TGI (NCI/ADR-RES ovarian) [µM] | GI50 (PC-3 prostate) [µM] | TGI (PC-3 prostate) [µM] | GI50 (RXF 393 renal) [µM] | GI50 (SF-295 CNS) [µM] | GI50 (TK-10 renal) [µM] | GI50 (A498 renal) [µM]
O=C(c1ccccc1)c1c(-c2ccccc2)sc2nc3ccccc3nc12 | > 100 | > 100 | > 100 | > 100 | > 100 | > 100 | > 100 | > 100 |  |  |  |  |  |  |  |  |  |  | 
CC1=C(C(=O)Nc2ccc(Cl)c(Cl)c2)C(c2cccc(Cl)c2)NC(=O)N1 (stereo not drawn) | 28.3 |  | > 50 |  | 20.1 | 32.6 | 5.12 | 0.346 | 10.2 | 17.3 | 8.5 | 13.3 | 33.5 | > 50 | > 50 | 13.8 | 1.04 | 0.22 | 
Cc1cccc(C)c1CO | > 100 |  | > 100 | > 100 | > 100 | > 100 | > 100 |  |  |  |  |  |  |  |  |  |  |  | 
CCOC(=O)Cc1ccc2c(c1O)C(=O)c1c(ccc(CC(=O)OCC)c1O)C2=O | > 100 | > 100 | > 100 | > 100 |  | > 100 | > 100 | > 100 |  |  |  |  |  |  |  |  |  |  | 
Cc1cc(-c2nc3sccn3c2/C=N/N=C(N)N)c(C)s1 | 29.1 | 33.9 | 51 |  | 30.4 |  | 26.3 | 31.5 | 15.7 | 25.5 | 16.8 | 17.4 | 31.6 | 13.4 | 26.3 |  | 13.5 | 17.4 | 18.8
O=C(O)Cc1cc(=O)[nH]c2c1/C(=N/O)CCC2 | > 100 |  | > 100 | > 100 | > 100 | > 100 | > 100 | > 100 |  |  |  |  |  |  |  |  |  |  | 
NC[C@H]1Nc2ccccc2[C@@H](O)C1O (stereo partly drawn) | > 100 |  | > 100 | > 100 | > 100 | > 100 | > 100 | > 100 |  |  |  |  | > 100 |  | > 100 |  |  |  | 
COc1ccc(C(=O)C(C(=O)CC(=O)Nc2cccc(C(F)(F)F)c2)c2ccc(OC)cc2)cc1 (stereo not drawn) | > 100 | > 100 | > 100 | > 100 | > 100 | > 100 | > 100 |  |  |  |  |  |  |  |  |  |  |  | 
c1ccc2c(NCCCCCCNc3c4ccccc4nc4ccccc34)c3ccccc3nc2c1 | 2.08 | 2.83 | 2.89 | 2.49 |  | 1.56 | 2.18 | 4.9 |  |  |  |  | 64.2 |  |  |  |  |  | 
CN1CC(=O)N(C)c2ncn(Cc3ccccc3)c2C1=O | > 100 | > 100 | > 100 | > 100 | > 100 | > 100 | > 100 | > 100 |  |  |  |  |  |  |  |  |  |  | 
COC(=O)C1=C(O)c2cc(-c3ccccc3)c(-c3ccccc3)c(C#N)c2NC(=O)C1 | > 100 | > 100 | 54.4 |  | > 100 | 9.33 | 42.1 |  |  |  |  |  |  |  |  |  |  |  | 
